Test results as given in patent US20240279232A1, “USE OF SUBSTITUTED 5-(4-METHYL-6-PHENYL-4H-BENZO[F]IMIDAZO[1,5-A][1,4] DIAZEPIN-3-YL)-1,2,4-O[…] THE TREATMENT OF INFLAMMATORY CONDITIONS” (priority 2021, published 2024).

Experiments:
[1] = tested on: BZR (benzodiazepine site of GABAAR); experiment: GABAAR/BZR binding, rat brain homogenate with 3H-flunitrazepam; details: rat brain homogenate, 3H-flunitrazepam; for BZR %: Percent inhibition at 10,000 nM
Procedure: (§1) Ligand affinities were determined for KOR (κ opioid receptor), DOR (δ opioid receptor), and MOR (μ opioid receptor) using radioligand binding assays at a screening concentration of 10,000 nM. For these assays, cell homogenates from HEK293 cells that overexpressed KOR, MOR, and DOR were used in combination with [^3H]-U69593, [^3H]-DAMGO, and [^3H]-DADLE, respectively Compounds that exceeded more than 50% radioligand displacement were investigated further in concentration-dependent experiments to determine Ki values. Gamma aminobutyric acid type A receptor (GABAAR) binding was determined with rat brain homogenate and ^3H-flunitrazepam. Flunitrazepam binds GABAAR subtypes that consists of two α and two β subunits and one γ or δ subunit. Strong affinities to α1-3,5,6β1-3γ1-y/δ GABAARS have been reported for flunitrazepam. The […] GABAAR subtype expression in the brain includes 43% α1β2γ2, 15% α2β3γ2+8% α2βγ1, 10% α3β3γ2, 6% α4βγ/δ, 4% α5β3γ2, and 4% α6β2γ2/δ. Therefore, compounds with high affinity toward the synaptic benzodiazepine-sensitive receptors (BZR) predominately bind α1-3β2-3γ1-2 GABAARs. Alternatively, compounds with weak BZR binding might be selective for α4-6βγ/δ GABAARs.
(§2) Psychoactive Drug Screening Program. Detailed protocols for the primary and secondary radioligand binding assays can be found in the National Institute of Mental Health's Psychoactive Drug Screening Program (NIMH PDSP) Assay Protocol Book. Briefly, primary and secondary radioligand binding assays are carried out in a final of volume of 125 μL per well in appropriate binding buffer. The radioactive ligand concentration is close to the Kd. Total binding and nonspecific binding are determined in the absence and presence of 10 μM of appropriate reference compound, respectively. In brief, plates are usually incubated at room temperature and in the dark for 90 min. Reactions are stopped by vacuum filtration onto 0.3% polyethyleneimine (PEI) soaked 96-well filter mats using a 96-well Filtermate harvester, followed by three washes with cold PBS buffer. Scintillation cocktail is then melted onto the microwave-dried filters on a hot plate and radioactivity counted in a Microbeta counter. The data (n=6) were analyzed by nonlinear regression.

MOR (μ opioid receptor) = biological target: T1, MOR (μ opioid receptor) (Homo sapiens, UniProt P35372); experiment: MOR radioligand binding ([3H]-DAMGO, HEK293 cell homogenates); details: Percent inhibition at 10,000 nM; [3H]-DAMGO
T1 construct: expressed in transfected cells; host or cells: HEK293
T1 sequence (P35372 whole entry, species assumed): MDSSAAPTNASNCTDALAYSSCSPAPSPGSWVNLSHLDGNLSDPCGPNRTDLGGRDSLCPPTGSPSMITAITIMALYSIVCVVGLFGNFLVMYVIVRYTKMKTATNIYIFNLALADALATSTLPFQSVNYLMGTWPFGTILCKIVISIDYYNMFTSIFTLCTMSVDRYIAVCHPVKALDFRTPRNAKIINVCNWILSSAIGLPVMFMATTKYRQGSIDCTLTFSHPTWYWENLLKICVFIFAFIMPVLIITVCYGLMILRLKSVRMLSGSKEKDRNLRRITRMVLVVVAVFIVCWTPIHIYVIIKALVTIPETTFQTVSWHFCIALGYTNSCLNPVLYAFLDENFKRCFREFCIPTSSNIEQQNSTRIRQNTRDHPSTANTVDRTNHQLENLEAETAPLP
Procedure: as §2, with “Radioligand binding assays.” for “Psychoactive Drug Screening Program.”, “Book (Roth, 2018).” for “Book.”, “The radioactive ligand concentration is close to the Kd.” left out, “compound (Naltrindole DOR, Salvinorin A KOR and DAMGO MOR).” for “compound, respectively.”
as §1, §2

DOR (δ opioid receptor) = biological target: T2, DOR (δ opioid receptor) (Homo sapiens, UniProt P41143); experiment: DOR radioligand binding ([3H]-DADLE, HEK293 cell homogenates); details: Percent inhibition at 10,000 nM; [3H]-DADLE
T2 construct: expressed in transfected cells; host or cells: HEK293
T2 sequence (P41143 whole entry): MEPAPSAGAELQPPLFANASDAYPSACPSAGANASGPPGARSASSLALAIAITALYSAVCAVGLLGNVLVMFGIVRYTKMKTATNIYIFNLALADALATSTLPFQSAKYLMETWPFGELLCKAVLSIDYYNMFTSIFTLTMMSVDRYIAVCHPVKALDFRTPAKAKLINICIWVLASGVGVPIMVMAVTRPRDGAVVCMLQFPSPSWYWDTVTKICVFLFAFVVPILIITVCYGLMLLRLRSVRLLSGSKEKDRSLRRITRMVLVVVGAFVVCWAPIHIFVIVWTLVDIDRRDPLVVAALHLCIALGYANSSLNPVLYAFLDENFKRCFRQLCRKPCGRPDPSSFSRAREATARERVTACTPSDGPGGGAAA
Procedure: as §2, with “Radioligand binding assays.” for “Psychoactive Drug Screening Program.”, “Book (Roth, 2018).” for “Book.”, “The radioactive ligand concentration is close to the Kd.” left out, “compound (Naltrindole DOR, Salvinorin A KOR and DAMGO MOR).” for “compound, respectively.”
as §1, §2

KOR (κ opioid receptor) = biological target: T3, KOR (κ opioid receptor) (Homo sapiens, UniProt P41145); experiment: KOR radioligand binding ([3H]-U69593, HEK293 cell homogenates); details: for inhibition at 10 µM: Percent inhibition at 10,000 nM; for inhibition at 10 µM / Ki: [3H]-U69593; for Ki: concentration-dependent, read-out: KOR (Ki)
T3 construct: expressed in transfected cells; host or cells: HEK293 (stably transfected)
T3 sequence (P41145 whole entry): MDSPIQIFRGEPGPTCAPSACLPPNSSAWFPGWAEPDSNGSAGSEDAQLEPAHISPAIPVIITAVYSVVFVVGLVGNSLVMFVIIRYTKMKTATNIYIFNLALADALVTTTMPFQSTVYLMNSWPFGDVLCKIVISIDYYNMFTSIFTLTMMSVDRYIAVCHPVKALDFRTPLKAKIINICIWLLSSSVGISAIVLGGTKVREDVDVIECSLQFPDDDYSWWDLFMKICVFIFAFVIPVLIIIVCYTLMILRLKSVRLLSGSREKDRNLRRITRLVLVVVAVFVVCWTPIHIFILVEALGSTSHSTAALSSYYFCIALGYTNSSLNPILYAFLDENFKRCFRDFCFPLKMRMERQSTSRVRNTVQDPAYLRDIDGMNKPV
Procedure: as §2, with “Radioligand binding assays.” for “Psychoactive Drug Screening Program.”, “Book (Roth, 2018).” for “Book.”, “The radioactive ligand concentration is close to the Kd.” left out, “compound (Naltrindole DOR, Salvinorin A KOR and DAMGO MOR).” for “compound, respectively.”
as §1, §2

Mouse microglia = experiment: NO production (Griess assay), LPS/IFNγ-activated mouse microglia; type: cell-based; details: with 50 μM MP-IV-010; flumazenil 50 μM, picrotoxin 50 μM, bicuculline 100 μM, SM-21 30 μM, norbinaltorphimine 30 μM
Procedure: Next, a library of GABAAR ligands was investigated to identify compounds that reduce the production of NO as a marker of anti-inflammatory activity. […] NO was quantified with a Greiss assay. Cell viability was determined with CellTiter-Glo.
Cell culture. A) HMC3 Microglia (CRL-3304) were maintained in treated cell culture flasks (Nunc, 156472) with EMEM (Corning, 10010CV) supplemented with 10% heat-inactivated FBS (Corning, 35011CV) and 100 U/mL penicillin and 100 μg/mL streptomycin (Hyclone, SV30010). Cultures were maintained at 37° C. and 5% CO2. When cells reached a density of 7×10^4 cells/mL, cultures were passaged with 0.25% Trypsin (Corning, 25-053-CI) and resuspended to a density no lower than 10,000 cells/mL. B) Human and mouse microglia cell lines were a gift from Dr. David Alvarez-Carbonell at Case Western Reserve University (Cleveland, OH). Microglia were cultured in cell culture treated flasks (Nunc, 156472) with DME/F12 media (Hyclone, SH30023.01) supplemented with 10% heat-inactivated FBS (Corning, 35011CV), 100 U/mL penicillin/100 μg/mL streptomycin (Hyclone, SV30010), and Normocin (Invivogen, ant-nr). Cultures were maintained at 37° C. and 5% CO2. […] Cultures were maintained at 37° C. and 5% CO2. Cells were passaged when they reached a density of approximately 3×10^6 cells/mL using cell scrapers (VWR, 10062-906) to lift cells from flask surface and resuspended at densities of approximately 500,000 cells/mL.
Nitric oxide production (Griess assay) and viability assay (CellTiter-Glo). 80 μL of mouse microglia culture (1×10^6 cells/mL) was plated into sterile 384 well plates representing non-activated wells. The remaining culture was activated with 50 ng/ml LPS (Invivogen, NC9836) and 150 U/mL IFNγ (R&D Systems, 485MI100) and distributed into the 384 well plates. […] Assay plates were incubated for approximately 24 hours (unless otherwise noted) at 37° C., centrifuged, and 40 μL of supernatant transferred to a new plate for analysis using the Griess Assay (Promega, Madison, WI). Absorbance at 530 nm was measured using a TECAN Infinite M1000 plate reader. The remaining 40 μL containing cells was analyzed for toxicity by the CellTiter-Glo Assay (Promega, Madison, WI). Luminescence was read using a TECAN Infinite M1000 plate reader.

| Compound | BZR % [1] [%] | Ki [1] [nM] | inhibition at 10 µM (MOR (μ opioid receptor)) [%] | inhibition at 10 µM (DOR (δ opioid receptor)) [%] | inhibition at 10 µM (KOR (κ opioid receptor)) [%] | Ki (KOR (κ opioid receptor)) [nM] | KOR affinity (in words) (KOR (κ opioid receptor); radioligand binding) | reversal of the NO reduction by MP-IV-010 (in words) (Mouse microglia) |
| --- | --- | --- | --- | --- | --- | --- | --- | --- |
| C#Cc1ccc2c(c1)C(c1ccccn1)=N[C@H](C)c1c(C(=O)O)ncn1-2 [GL-II-30] | 65 | 431 | 20 | 4 | 0 |  |  |  |
| C#Cc1ccc2c(c1)C(c1ccccn1)=N[C@H](C)c1c(C(=O)NC)ncn1-2 [GL-II-31] | 72 | 1700 | 17 | 3 | 23 |  |  |  |
| C#Cc1ccc2c(c1)C(c1ccccc1F)=N[C@H](C)c1c(C(=O)N(C)C)ncn1-2 [GL-II-73] | 75 | 506 | 6 | 0 | 58 | 1190 |  |  |
| C#Cc1ccc2c(c1)C(c1ccccc1F)=N[C@H](C)c1c(C(=O)NCC)ncn1-2 [GL-II-74] | 84 | 68 | 10 | 0 | 86 | 194 |  |  |
| C#Cc1ccc2c(c1)C(c1ccccc1F)=N[C@H](C)c1c(C(=O)NC3CC3)ncn1-2 [GL-II-75] | 85 | 93 | 0 | 3 | 81 | 278 |  |  |
| C#Cc1ccc2c(c1)C(c1ccccc1F)=N[C@H](C)c1c(C(=O)N3CCCC3)ncn1-2 [GL-II-76] | 43 |  | 0 | 0 | 80 | 371 |  |  |
| C[C@H]1N=C(c2ccccc2F)c2cc(Br)ccc2-n2cnc(C(=O)O)c21 [GL-II-93] | 73 | 86 | 0 | 0 | 0 |  | No KOR affinity was observed |  |
| C#Cc1ccc2c(c1)C(c1ccccn1)=NCc1c(C(=O)OCC)ncn1-2 [Hz-166] |  |  | 6 | 49 | 60 | 3820 |  |  |
| CCC(Oc1ccc(Cl)cc1)C(=O)OC1CC2CCC(C1)N2C (centres unmarked) [SM-21, reference compound] |  |  |  |  |  |  |  | no reversal |
| CCOC(=O)c1ncn2c1CN(C)C(=O)c1cc(F)ccc1-2 [flumazenil, Flumazenil, reference compound] |  |  |  |  |  |  |  | did not reverse |
| Oc1ccc2c3c1O[C@H]1c4[nH]c5c(c4C[C@@]4(O)[C@@H](C2)N(CC2CC2)CC[C@]314)C[C@@]1(O)[C@H]2Cc3ccc(O)c4c3[C@@]1(CCN2CC1CC1)[C@H]5O4 [norbinaltorphimine, reference compound] |  |  |  |  |  |  |  | reversed the effects of MP-IV-010 |
| picrotoxin [reference compound] |  |  |  |  |  |  |  | did not reverse |
